Consider eleven compounds from ChEMBL document CHEMBL1268968, “Lupane-type triterpenoids from the steamed leaves of Acanthopanax koreanum and their inhibitory effects on the LPS-stimulated pro-inflammatory cytokine production in bone marrow-derived dendritic cells” (Bioorg Med Chem Lett, 2010).

Molecules are shown by their SMILES. Some results are limits rather than exact numbers.

Data set [1] in a line: Toxicity in C57BL/6 mouse BMDCs at 50 uM. It is filed as cell-based. The conditions noted are these: bmdc.
Data set [2] is described as follows: Antiinflammatory activity in C57BL/6 mouse BMDCs assessed as inhibition of LPS-stimulated IL12 production at 50 uM treated 1 hr before LPS challenge measured 18 hrs post stimulation by ELISA. Type of data set: functional, BMDC. For orientation: In an ELISA, binding on a coated surface is turned into a signal by an enzyme label.
Data set [3] can be described thus: Antiinflammatory activity in C57BL/6 mouse BMDCs assessed as inhibition of LPS-stimulated TNFalpha production at 50 uM treated 1 hr before LPS challenge measured 18 hrs post stimulation by ELISA. It is filed as functional, BMDC.
Data set [4] in a line: Antiinflammatory activity in C57BL/6 mouse BMDCs assessed as inhibition of LPS-stimulated IL6 production at 50 uM treated 1 hr before LPS challenge measured 18 hrs post stimulation by ELISA. It is filed as functional. Conditions: C57BL/6, BMDC.

For `C=C(C)[C@@H]1CC[C@]2(C(=O)O)CC[C@]3(C)[C@H](C[C@@H](O)[C@@H]4[C@@]5(C)CC[C@@H](O)[C@@](C)(C=O)[C@@H]5CC[C@]43C)[C@@H]12`, the Activity entry in data set [1] was “Non-toxic”. Besides, the “inhibition (INH)” value in data set [2] was 57.6%.

For `C[S+]([O-])c1ccc(-c2nc(-c3ccc(F)cc3)c(-c3ccncc3)[nH]2)cc1` (centres undefined) [SB-203580], the “inhibition (INH)” value in data set [2] is recorded as 84.3%.

Consider `C=C(C)[C@@H]1CC[C@]2(C(=O)O)CC[C@]3(C)[C@H](CC[C@@H]4[C@@]5(C)CC[C@@H](O)[C@@](C)(C(=O)O)[C@@H]5CC[C@]43C)[C@@H]12`, for which the Activity result in data set [1] is reported as “Non-toxic”. Further, the “inhibition (INH)” value in data set [2] is listed as less than 50%.

On to `C=C(C)[C@@H]1CC[C@]2(C(=O)O)CC[C@]3(C)[C@H](C[C@@H](O)[C@@H]4[C@@]5(C)CC[C@@H](O[C@@H]6O[C@H](CO)[C@@H](O)[C@H](O)[C@H]6O)C(C)(C)[C@@H]5CC[C@]43C)[C@@H]12`, for which the Activity result in data set [1] is reported as “Non-toxic”. Further, the “inhibition (INH)” value in data set [2] is less than 50%.

Regarding `C=C(C)[C@@H]1CC[C@]2(C(=O)O[C@@H]3O[C@H](CO[C@@H]4O[C@H](CO)[C@@H](O[C@@H]5O[C@@H](C)[C@H](O)[C@@H](O)[C@H]5O)[C@H](O)[C@H]4O)[C@@H](O)[C@H](O)[C@H]3O)CC[C@]3(C)[C@H](CC[C@@H]4[C@@]5(C)CC[C@@H](O)[C@@](C)(C(=O)O)[C@@H]5CC[C@]43C)[C@@H]12` [ACANKOREOSIDE A], in data set [1], the Activity entry was “Non-toxic”. The “inhibition (INH)” value in data set [2] is reported as less than 50%.

On to `C=C(C)[C@@H]1CC[C@]2(C(=O)O[C@@H]3O[C@H](CO[C@@H]4O[C@H](CO)[C@@H](O)[C@H](O)[C@H]4O)[C@@H](O)[C@H](O)[C@H]3O)CC[C@]3(C)[C@H](CC[C@@H]4[C@@]5(C)CC[C@@H](O)[C@@](C)(C(=O)O)[C@@H]5CC[C@]43C)[C@@H]12`, for which, in data set [1], the Activity result is reported as “Non-toxic”. Further, the “inhibition (INH)” value in data set [2] is listed as less than 50%.

As for `C=C(C)[C@@H]1CC[C@]2(C(=O)O[C@@H]3O[C@H](CO[C@@H]4O[C@H](CO)[C@@H](O[C@H]5O[C@@H](C)[C@H](O)[C@@H](O)[C@H]5O)[C@H](O)[C@H]4O)[C@@H](O)[C@H](O)[C@H]3O)CC[C@]3(C)[C@H](C[C@@H](O)[C@@H]4[C@@]5(C)CC[C@@H](O)C(C)(C)[C@@H]5CC[C@]43C)C12` (some centres undefined) [ACANTRIFOSIDE A], in data set [1], the Activity result was “Non-toxic”. Also, the “inhibition (INH)” value in data set [2] is recorded as less than 50%.

One may read the inhibition as how much of the control response was suppressed. As for `COC(OC)[C@H](C)[C@@H]1CC[C@]2(C(=O)O)CC[C@]3(C)[C@H](CC[C@@H]4[C@@]5(C)CC[C@@H](O)[C@@](C)(C(=O)O)[C@@H]5CC[C@]43C)[C@@H]12`, the “inhibition (INH)” value is 64.7% in data set [3] and 94.2% in data set [2]. In data set [1], the Activity entry is on record as “Non-toxic”. Also, the inhibition at 50 µM in data set [4] amounted to 63.6%.

On to `C=C(C)[C@@H]1CC[C@]2(C(=O)O)CC[C@]3(C)[C@H](C[C@@H](O)[C@@H]4[C@@]5(C)CC[C@@H](O)C(C)(C)[C@@H]5CC[C@]43C)[C@@H]12` [IMPRESSIC ACID], for which the results for the “inhibition (INH)” value in data set [3] and in data set [2] were 67.9% and 62.6%, respectively. Further, the Activity entry in data set [1] is “Non-toxic”.

With `C=C(C)[C@@H]1CC[C@]2(C(=O)O)CC[C@]3(C)[C@H](C[C@@H](O)[C@@H]4[C@@]5(C)CC[C@@H](O)[C@@](C)(CO)[C@@H]5CC[C@]43C)[C@@H]12`, the Activity entry in data set [1] is reported as “Non-toxic”. For the same compound, the “inhibition (INH)” value in data set [2] is less than 50%.

Consider `C=C(C)[C@@H]1CC[C@]2(C(=O)O[C@@H]3O[C@H](CO[C@@H]4O[C@H](CO)[C@@H](O[C@H]5O[C@@H](C)[C@H](O)[C@@H](O)[C@H]5O)[C@H](O)[C@H]4O)[C@@H](O)[C@H](O)[C@H]3O)CC[C@]3(C)[C@H](C[C@@H](O)[C@@H]4[C@@]5(C)CC[C@@H](O)[C@@](C)(C=O)[C@@H]5CC[C@]43C)[C@@H]12` [ACANKOREOSIDE D], for which, in data set [1], the Activity entry is given as “Non-toxic”. Moreover, in data set [2], the “inhibition (INH)” value is less than 50%.
